Tested on: Chlorella cells
Assay: Test of reproductive ability using chlorella cells
Type: cell-based
Conditions: number of chlorella cells after 10 days, relative value, no-treated LS medium = 100; start 1.00x10^5 cells per ml
Experimental: <Test of Reproductive Ability Using Chlorella Cells> Chlorella cells, which are green cells of […], were cultured with vibration in an inorganic-salt medium. Raw materials shown in Table 4 were added thereto, and then reproductive ability of chlorella cells (ability for increasing the number of the cells) was evaluated by comparison with the result obtained from a medium which was no-treated (i.e., only original nutrients of the inorganic salt medium). For the respective compositions, the test was repeated 3 times. The concentration of the cells was set to 1.00×10^5 cells (per ml) at the start of the test. […] As the inorganic salt medium, a Linsmaier-Skoog (LS) medium was used.

Compared with `CCCO` [Comparative product 4-1, Propanol, reference compound], `CCCCCCO` [Comparative product 4-2, Hexanol, reference compound] is lower in “proliferating ability of cells” value: 96 for the first, 93 for the second.

Compared with `CCCCCCCCCCO` [Comparative product 4-4, Decyl alcohol, reference compound], `CCCCCCCCCCCCO` [Invention product 4-1, Lauryl alcohol] is higher in “proliferating ability of cells” value: 91 for the first, 115 for the second.

First: CCCCCCCCO [Comparative product 4-7, Octanol, reference compound]
Second: CCCCCCCCCCCCCCO [Invention product 4-2, Myristyl alcohol]
The “proliferating ability of cells” value of the first is lower: 95 for the first, 128 for the second.

Compared with `CCCCCCCCCCCCCCCCO` [Invention product 4-4, Cetyl alcohol], `CCCCCCCCCCCCCCCCCCO` [Invention product 4-6, Stearyl alcohol] is higher in “proliferating ability of cells” value: 148 for the first, 168 for the second.

Compared with `CCCCCCCC/C=C\CCCCCCCCO` [Invention product 4-7, Oleyl alcohol], `CCCCCCCCCCCCCCCCO` [Invention product 4-15, Cetyl alcohol] is lower in “proliferating ability of cells” value: 154 for the first, 142 for the second.

Going from `CCCCCCCCCCCCCCCCCCCCO` [Invention product 4-8, Eicosanol] to `CCCCCCCCCCCCCCCCCCCCCCO` [Invention product 4-9, Docosanol], the “proliferating ability of cells” value falls from 152 to 130.

Compared with `CCCCCCCCCCCCCCCCCCCCCCCCO` [Invention product 4-10, Tetracosanol], `CCCCCCCCCCCCCCCCCCCCO` [Invention product 4-17, Eicosanol] is higher in “proliferating ability of cells” value: 122 for the first, 146 for the second.

With `CCCCCCCCCCCCCCCCCCO` [Invention product 4-16, Stearyl alcohol] the “proliferating ability of cells” value was 156.
